From ChEMBL document CHEMBL3867464, “Novel substituted aminothiazoles as potent and selective anti-hepatocellular carcinoma agents” (Bioorg Med Chem Lett, 2016)
Converted amounts (≈) assume the structure as drawn.

Key:
[1] = Cytotoxicity against human HuH7 cells assessed as decrease in cell viability after 72 hrs by MTT assay; format: functional; conditions: Huh-7, 72 h
[2] = Cytotoxicity against human THLE2 cells assessed as decrease in cell viability after 72 hrs by MTT assay; format: toxicity, cell-based; conditions: thle-2, 72 h
[3] = Cytotoxicity against human PH5CH cells assessed as decrease in cell viability after 72 hrs by MTT assay; format: toxicity, cell-based
Huh-7 [4] = assay: Selectivity index, ratio of CC50 for human THLE2 cells to CC50 for human HuH7 cells; format: functional
Huh-7 [5] = assay: Selectivity index, ratio of CC50 for human PH5CH cells to CC50 for human HuH7 cells; format: functional
[6] = Solubility of the compound in methylene chloride solution; format: physicochemical
[7] = Solubility of the compound in ethyl acetate solution; format: physicochemical
[8] = Solubility of the compound in ethanol solution; format: physicochemical
[9] = Drug level in human liver microsomes treated with IHVR-04042 assessed as CYP450-mediated compound formation measured at 60 mins; format: ADME; conditions: 1 h
[10] = Drug level in mouse liver microsomes treated with IHVR-04042 assessed as CYP450-mediated compound formation measured at 60 mins; format: ADME; conditions: 1 h
[11] = Stability in human liver microsomes assessed as parent compound remaining measured at 60 mins; format: ADME; conditions: read-out: Stability
[12] = Aqueous solubility of the compound at pH 4; format: physicochemical; conditions: buffer
[13] = Aqueous solubility of the compound at pH 7.4; format: physicochemical; conditions: buffer
[14] = Stability in mouse liver microsomes assessed as parent compound remaining measured at 60 mins; format: ADME; conditions: read-out: Stability
[15] = Tmax in CD-1 mouse at 2 mg/kg, iv; format: ADME, organism-based; conditions: in vivo
[16] = Tmax in CD-1 mouse at 10 mg/kg, po; format: ADME, organism-based; conditions: in vivo
[17] = Cmax in CD-1 mouse at 10 mg/kg, po; format: ADME, organism-based; set-up: dose 10 mg/kg, route oral; conditions: in vivo
[18] = Half life in CD-1 mouse at 2 mg/kg, iv; format: ADME, organism-based; conditions: in vivo
[19] = Half life in CD-1 mouse at 10 mg/kg, po; format: ADME, organism-based; conditions: in vivo
[20] = Volume of distribution at steady state in CD-1 mouse at 2 mg/kg, iv; format: ADME, organism-based; conditions: in vivo, read-out: Vdss
[21] = AUClast in CD-1 mouse at 2 mg/kg, iv; format: ADME, organism-based; conditions: in vivo
[22] = AUClast in CD-1 mouse at 10 mg/kg, po; format: ADME, organism-based; conditions: in vivo
[23] = Oral bioavailability in CD-1 mouse at 10 mg/kg; format: ADME, organism-based; conditions: in vivo
[24] = Drug metabolism in human liver microsomes assessed as CYP450-mediated 4-(pyridin-2-yl)-2-(pyrimidin-2-ylamino)thiazole-5-carboxylic acid formation measured at 60 mins; format: ADME; conditions: 1 h
[25] = Drug metabolism in mouse liver microsomes assessed as CYP450-mediated 4-(pyridin-2-yl)-2-(pyrimidin-2-ylamino)thiazole-5-carboxylic acid formation measured at 60 mins; format: ADME; conditions: 1 h
[26] = Drug level in human liver microsomes treated with isopropyl 4-(pyrazin-2-yl)-2-(pyrimidin-2-ylamino)thiazole-5-carboxylate assessed as CYP450-mediated compound formation measured at 60 mins; format: ADME; conditions: 1 h
[27] = Drug level in mouse liver microsomes treated with isopropyl 4-(pyrazin-2-yl)-2-(pyrimidin-2-ylamino)thiazole-5-carboxylate assessed as CYP450-mediated compound formation measured at 60 mins; format: ADME; conditions: 1 h
[28] = Tmax in CD-1 mouse at 1 mg/kg, iv; format: ADME, organism-based; conditions: in vivo
[29] = Tmax in CD-1 mouse at 2.5 mg/kg, po; format: ADME, organism-based; conditions: in vivo
[30] = Cmax in CD-1 mouse at 2.5 mg/kg, po; format: ADME, organism-based; set-up: dose 2.5 mg/kg, route oral; conditions: in vivo
[31] = Half life in CD-1 mouse at 1 mg/kg, iv; format: ADME, organism-based; conditions: in vivo
[32] = Volume of distribution at steady state in CD-1 mouse at 1 mg/kg, iv; format: ADME, organism-based; conditions: in vivo, read-out: Vdss
[33] = AUClast in CD-1 mouse at 1 mg/kg, iv; format: ADME, organism-based; conditions: in vivo
[34] = AUClast in CD-1 mouse at 2.5 mg/kg, po; format: ADME, organism-based; conditions: in vivo
[35] = Oral bioavailability in CD-1 mouse at 2.5 mg/kg; format: ADME, organism-based; conditions: in vivo
[36] = Drug uptake in CD-1 mouse liver at 2.5 mg/kg, po; format: ADME, organism-based; conditions: in vivo
[37] = Cytotoxicity against human hepatic cancer cells derived from HCC patient assessed as change in cell proliferation by measuring response rate at 1 uM after 48 hrs by Ki-67 immunostaining based assay; format: functional, Cancer cell lines
[38] = Drug metabolism in human liver microsomes assessed as CYP450-mediated 4-(pyrazin-2-yl)-2-(pyrimidin-2-ylamino)thiazole-5-carboxylic acid formation measured at 60 mins; format: ADME; conditions: 1 h
[39] = Drug metabolism in mouse liver microsomes assessed as CYP450-mediated 4-(pyrazin-2-yl)-2-(pyrimidin-2-ylamino)thiazole-5-carboxylic acid formation measured at 60 mins; format: ADME; conditions: 1 h

Row | SMILES | CC50 [1] [µM] | CC50 [2] [µM] | CC50 [3] [µM] | Selectivity Index (Huh-7 [4]) | Selectivity Index (Huh-7 [5]) | also measured
1 | CCOC(=O)c1sc(Nc2ncccn2)nc1-c1ncccc1C | 46.1 | 49.1 | 50 | 1.07 | – | –
2 | CC(C)OC(=O)c1sc(Nc2ncccn2)nc1-c1ncccn1 | 1.62 | 50 | 50 | 30.96 | 30.96 | –
3 | CC(C)OC(=O)c1sc(N(COP(=O)(OC(C)(C)C)OC(C)(C)C)c2ncccn2)nc1-c1cnccn1 | 0.98 | 50 | 50 | 51.28 | 51.28 | solubility [6]: Soluble; solubility [7]: Soluble; solubility [8]: Soluble
4 | CC(C)OC(=O)c1sc(Nc2ncccn2)nc1-c1ccccn1 | 0.41 | 50 | 49.8 | 123.39 | – | –
5 | CCOC(=O)Cc1sc(Nc2ncccn2)nc1-c1ccccn1 | 1.39 | 50 | 50 | 35.94 | 35.94 | –
6 | O=C(O)c1sc(Nc2ncccn2)nc1-c1ccccn1 | – | – | – | – | – | Drug metabolism [9]: Metabolite_Detected; Drug metabolism [10]: Metabolite_Detected
7 | c1ccc(-c2csc(NCc3ncccn3)n2)nc1 | 40.5 | 49.6 | 49.8 | 1.22 | – | –
8 | CCOC(=O)CCc1sc(Nc2ncccn2)nc1-c1ccccn1 | 2.05 | 10.5 | 10.1 | 5.1 | 4.93 | –
9 | CCOC(=O)c1sc(Nc2ncccn2)nc1-c1ccccn1 | 0.18 | – | – | 253.954 | 214.328 | remaining at 1 h [11]: 63.1%; solubility [12]: 112.84 µM (≈ 36.9 µg/mL); solubility [13]: 23.84 µM (≈ 7.8 µg/mL); remaining at 1 h [14]: 43.3%; Tmax [15]: 0 h; Tmax [16]: 34.8 min; Cmax [17]: 0.0941 µg/mL; half-life [18]: 14.4 min; half-life [19]: 115 min; Vd [20]: 1.45 L/kg; AUClast [21]: 224 ng·mL·h; AUClast [22]: 19.5 ng·mL·h; bioavailability [23]: 10%; Drug metabolism [24]: Metabolite_Detected; Drug metabolism [25]: Metabolite_Detected
10 | CC(C)OC(=O)OCN(c1ncccn1)c1nc(-c2cnccn2)c(C(=O)OC(C)C)s1 | 0.095 | 50 | 50 | 528.17 | 528.17 | solubility [6]: Soluble; solubility [7]: Soluble; solubility [8]: Soluble
11 | CCOC(=O)c1sc(Nc2ncccn2)nc1-c1cnccn1 | 0.59 | 47.1 | 50 | 80.06 | 85.03 | –
12 | CC(C)OC(=O)c1sc(Nc2ncccn2)nc1-c1ccncn1 | 1.21 | 46.2 | 50 | 38.11 | 41.24 | –
13 | CCOC(=O)c1sc(Nc2ncccn2)nc1-c1cc(C(F)(F)F)ccn1 | 0.17 | 15 | 9.34 | 90.32 | 56.24 | –
14 | CCOCc1sc(Nc2ncccn2)nc1-c1ccccn1 | 3.19 | 41.8 | 39 | 13.08 | 12.23 | –
15 | CCOC(=O)Cc1sc(NCc2ncccn2)nc1-c1ccccn1 | 49.4 | 50 | 50 | 1.01 | 1.01 | –
16 | CCOCc1sc(NCc2ncccn2)nc1-c1ccccn1 | 44.8 | 49.6 | 50 | 1.11 | – | –
17 | CCOC(=O)c1sc(NCc2ncccn2)nc1-c1ccccn1 | 50 | – | – | 1 | 1 | –
18 | O=C(O)c1sc(Nc2ncccn2)nc1-c1cnccn1 | – | – | – | – | – | Drug metabolism [26]: Metabolite_Detected; Drug metabolism [27]: Metabolite_Detected
19 | CC(C)OC(=O)c1sc(N(COP(=O)(OC(C)(C)C)OC(C)(C)C)c2ncccn2)nc1-c1ccccn1 | 0.38 | 42.2 | 50 | 111.42 | 131.93 | solubility [6]: Soluble; solubility [7]: Soluble; solubility [8]: Soluble
20 | O=C(O)CCc1sc(Nc2ncccn2)nc1-c1ccccn1 | 14.1 | 26.4 | 17.7 | 1.87 | 1.25 | –
21 | COCCOCN(c1ncccn1)c1nc(-c2cnccn2)c(C(=O)OC(C)C)s1 | 50 | 50 | 50 | – | 1 | solubility [6]: Soluble; solubility [7]: Soluble; solubility [8]: Soluble
22 | CCOC(=O)c1sc(Nc2ncccn2)nc1-c1ccncn1 | 1.6 | 40.8 | 40 | 25.46 | 24.97 | –
23 | CC(C)OC(=O)c1sc(Nc2ncccn2)nc1-c1cnccn1 | 0.11 | 50 | 50 | 471.7 | 471.7 | remaining at 1 h [11]: 70.9%; solubility [12]: 6.35 µM (≈ 2.17 µg/mL); solubility [13]: 5.2 µM (≈ 1.78 µg/mL); remaining at 1 h [14]: 36.2%; Tmax [28]: 0 h; Tmax [29]: 26.4 min; Cmax [30]: 0.0487 µg/mL; half-life [31]: 26.4 min; Vd [32]: 3.49 L/kg; AUClast [33]: 142 ng·mL·h; AUClast [34]: 21.6 ng·mL·h; bioavailability [35]: 15.2%; Drug uptake [36]: 33 ng/g; Activity [37]: 38%; Drug metabolism [38]: Metabolite_Detected; Drug metabolism [39]: Metabolite_Detected
24 | c1ccc(-c2csc(Nc3ncccn3)n2)nc1 | 1.1 | – | – | 35.45 | 40.294 | –
